According to patent US8853264B2, “Use of lignan compounds for treating or preventing inflammatory disease” (Newtree Industry Co., Ltd., priority 2005, dated 2014):

Assays:
RAW264.7 cells = experiment: MTT cytotoxicity assay on RAW264.7 cells; type: cell-based; conditions: macelignan 1-20 μM, 24 hours
Method: In order to examine the effect of macelignan obtained in <Example 1> on the production of inflammatory response mediators, the macrophage RAW264.7 cell line was used. The macrophage RAW264.7 cell line (ATCC TIB-71) was purchased from American Tissue Culture Collection (Rockville, Md., USA). The cell line was cultured in DMEM (Dulbecco's Modified Eagle's Medium, Gibco, USA) supplemented with 10% heat inactivated FBS (fetal bovine serum, Gibco, USA), 100 U/ml penicillin G and 100 μg/ml streptomycin, in a 5% CO2 incubator at 37° C. In order to examine the effect of the inventive macelignan on the viability of RAW 264.7 cells, analysis was performed based on the reduction of MTT changed into a purple formazan product by mitochondrial dehydrogenase (Hayon T. et al., Leuk. Lymphoma. 44(11): 1957-1962, 2003). 1×10^6 cells/ml of RAW264.7 cells were inoculated into RPMI 1640 medium, and after 6 hours, were treated with the inventive macelignan at concentrations up to 1-80 μM/ml. After 24 hours, the viability of the cells was measured by the MTT assay.

[1] = test system: inflammatory cells, mast cells, eosinophils; experiment: Skin staining (H&E, Toluidine blue, Congo red), atopic dermatitis model; type: in vivo, NC/Nga mice
Method: 8-week-old NC/Nga mice (20-25 g) were purchased from Chungang Lab. Animal. After adapting for 1 week, the NC/Nga mouse was anesthetized with 90% ethyl ether (Ducsan, Korea) and hair was removed from the occipital region and the back of the mouse using depilatory cream (Reckitt Benckiser, France). After allowing micro wound healing for a day, 100 mg of mite antigen cream (Biostir, Inc. Japan) comprising Dermatophagoides farina, which causes atopic dermatitis, as a main ingredient was evenly applied on the ear, occipital region and back, 3 times a week (for 5 weeks, from week 9 to week 13). 2 hours before application of the mite antigen cream, 4% SDS solution was applied at the same area to increase transdermal absorption of the mite antigen cream by inducing the breakdown of skin fats and cuticle layer. From week 3 following the application, IgE value was measured to quantitate the degree of atopic dermatitis. Also during the drug treatment period (week 12 to week 13), 100 mg of the mite antigen cream was applied 3 times a week to prevent spontaneous healing of the atopic dermatitis.
In order to induce atopic dermatitis, 100 mg of mite antigen cream was applied on the ear, occipital region and back of NC/Nga mouse (9 to 11 weeks old), except for the negative control group, 3 times a week, 2 hours after the application of 4% SDS solution. Three weeks later, it was observed whether atopic dermatitis was induced by checking skin rash, erythema, cornification, or the like. Atopic dermatitis was induced in all groups except for the negative control group. For drug treatment and evaluation of therapeutic effect, mice were grouped into 12 groups, 6 oral administration groups and 6 topical application groups (each consisting of negative control group, positive control group, macelignan low conc. group, macelignan high conc. group, nutmeg extract low conc. group, and nutmeg extract high conc. group), with n=5 per cage. During the following drug treatment and evaluation period of 2 weeks (12 to 13 weeks old), the negative control groups, which had not been treated with 4% SDS solution and mite antigen cream, were treated with physiological saline (oral administration group) or base cream (topical application group) every day, and the positive control groups, which had been treated with 100 mg of mite antigen cream 2 hours after application of 4% SDS solution, 3 times every week, were treated with physiological saline (oral administration group) or base cream (topical application group). The oral administration groups were treated with 100 mg of mite antigen cream 2 hours after application of 4% SDS solution, 3 times every week, and were treated with macelignan or nutmeg extract at low concentration (50 mg/kg/day) or high concentration (150 mg/kg/day) every day. The topical application groups were treated with 100 mg of mite antigen cream 2 hours after application of 4% SDS solution, 3 times every week, and were treated with macelignan cream or nutmeg extract cream at low concentration (20 mg/kg/day) or high concentration (60 mg/kg/day) every day. Transepidermal water loss (TEWL), skin hydration and erythema index were measured one day before the end of the test. Serum was obtained by retro-orbital blood sampling. After the end of the test (14 weeks old) spleen and skin tissues from occipital region and back were sampled and stored at −70° C. ALN (axillary lymph node) was stored in DMEM containing 2% FBS (fetal bovine serum). The skin tissues were stored in 10% formalin solution.
After the end of the experiment, skin was isolated from the occipital region. Hematoxylin/eosin (H&E) staining was performed to examine change of inflammatory cells such as mast cells, neutrophils, eosinophils, etc. in the epidermis, dermis and keratinocytes and change of skin thickness. Toluidine blue staining was performed to selectively stain the mast cells, and congo red staining was performed to selectively stain the eosinophils.

[2] = oral administration 50 and 150 mg/kg
[3] = topical application 20 and 60 mg/kg

COc1cc(C[C@H](C)[C@H](C)Cc2ccc3c(c2)OCO3)ccc1O (single isomer, unassigned) [macelignan]
viability of the RAW264.7 cells (RAW264.7 cells): no significant effect
Congo red staining: eosinophils [1, 2]: effect of decreasing eosinophils
H&E staining: inflammatory cells and epidermal thickness [1, 2]: effect of decreasing inflammatory cells and increased epidermal thickness
Toluidine blue staining: mast cells [1, 2]: effect of decreasing mast cells
Congo red staining: eosinophils [1, 3]: effect of decreasing eosinophils
H&E staining: inflammatory cells and epidermal thickness [1, 3]: effect of decreasing inflammatory cells and increased epidermal thickness
Toluidine blue staining: mast cells [1, 3]: effect of decreasing mast cells
